In general, IC50 refers to the concentration that inhibits the measured activity by half. One may read the CL/F as clearance divided by bioavailability, as obtained after extravascular dosing.

Data on one compound can be found in ChEMBL document CHEMBL5500426, “Directly Suppressing MYC Function with Novel Alkynyl-Substituted Phenylpyrazole Derivatives that Induce Protein Degradation and Perturb MYC/MAX Interaction” (J Med Chem, 2024).

In series [1] the test system is PC-3. The series can be described thus: Antitumor activity against human PC-3 cells xenografted in BALB/C mouse assessed as tumor growth inhibition at 75 mg/kg,ip administrated daily for 21 consecutive days relative to control. As to conditions: read-out: TGI. Type of series: functional.
The subject of series [2] is PC-3. The series can be described thus: Antitumor activity against human PC-3 cells xenografted in BALB/C mouse assessed as reduction in tumor volume at ip administrated daily for 21 consecutive days. Type of series: functional, organism-based.
The nature of series [3]: Toxicity in BALB/C mouse xenografted with human PC-3 cells assessed as histopathological change in heart at 50 to 100 mg/kg,ip administrated daily for 21 consecutive days by hematoxylin and eosin staining based microscopic analysis. The format is organism-based. The conditions noted are these: in vivo, dose 50-100 mg/kg. On the technique in general: Xenograft models place foreign cells or tissue in a host animal.

Series [4] is described as follows: Cytotoxicity against human GES1 cells assessed as inhibition of cell growth incubated for 72 hrs by MTT assay. The format is toxicity, cell-based.
The subject of series [5] is PC-3. Nature of the series: Antitumor activity against human PC-3 cells xenografted in BALB/C mouse assessed as tumor growth inhibition at 50 mg/kg,ip administrated daily for 21 consecutive days relative to control. Type of series: functional. The conditions noted are these: read-out: TGI.
Series [6] concerns PC-3. Nature of the series: Antitumor activity against human PC-3 cells xenografted in BALB/C mouse assessed as reduction in tumor weight at ip administrated daily for 21 consecutive days. The format is functional, organism-based.
In series [7] the test system is PC-3. The series can be described thus: Antiproliferative activity against human PC-3 cells assessed as inhibition of cell growth incubated for 72 hrs by MTT assay. The format is functional, cell-based. As to conditions: PC-3, 72 h. Background: Tetrazolium assays rely on reduction of a dye to a coloured formazan, in cell work by metabolically active cells.
A further series relates to MV4-11. The series can be described thus: Antiproliferative activity against human MV4-11 cells assessed as inhibition of cell growth incubated for 72 hrs by MTT assay. As to conditions: MV4-11, 72 h. The format is functional, cell-based.
Series [8] deals with T1, c-Myc/c-Max (Homo sapiens) (UniProt P01106+P61244). The series can be described thus: Inhibition of MYC/MAX protein-protein interaction in human PC-3 cells at 1 uM incubated for 30 mins. Type of series: cell-based.
Series [9] relates to PC-3. The series can be described thus: Antitumor activity against human PC-3 cells xenografted in BALB/C mouse assessed as tumor growth inhibition at 100 mg/kg,ip administrated daily for 21 consecutive days relative to control. As to conditions: read-out: TGI. Type of series: functional.
The nature of series [10]: Toxicity in BALB/C mouse xenografted with human PC-3 cells assessed as histopathological change in spleen at 50 to 100 mg/kg,ip administrated daily for 21 consecutive days by hematoxylin and eosin staining based microscopic analysis. The format is organism-based. The conditions noted are these: in vivo, dose 50-100 mg/kg.
Series [11] can be described thus: Volume of distribution at steady state in Sprague-Dawley rat at 2 mg/kg,iv administration by LC-MS/MS analysis. The format is ADME, organism-based. As to conditions: in vivo, read-out: Vdss.
The test system of a further series is HepG2. Nature of the series: Antiproliferative activity against human HepG2 cells assessed as inhibition of cell growth incubated for 72 hrs by MTT assay. The conditions noted are these: HepG2, 72 h. Type of series: functional, cell-based.
Series [12] in a line: Clearance in Sprague-Dawley rat at 10 mg/kg,ip administration by LC-MS/MS analysis. Type of series: ADME, organism-based. The conditions noted are these: in vivo.
The target of series [13] is T1, c-Myc/c-Max (Homo sapiens). Nature of the series: Inhibition of MYC/MAX protein-protein interaction in human PC-3 cells at 10 uM incubated for 1 hr by Co-immunoprecipitation based immunoblotting analysis. The format is cell-based.

Structures are written as SMILES. Active and inactive are the calls of the source. No cut-off for these calls is given here.

T1 sequence (P01106 whole entry): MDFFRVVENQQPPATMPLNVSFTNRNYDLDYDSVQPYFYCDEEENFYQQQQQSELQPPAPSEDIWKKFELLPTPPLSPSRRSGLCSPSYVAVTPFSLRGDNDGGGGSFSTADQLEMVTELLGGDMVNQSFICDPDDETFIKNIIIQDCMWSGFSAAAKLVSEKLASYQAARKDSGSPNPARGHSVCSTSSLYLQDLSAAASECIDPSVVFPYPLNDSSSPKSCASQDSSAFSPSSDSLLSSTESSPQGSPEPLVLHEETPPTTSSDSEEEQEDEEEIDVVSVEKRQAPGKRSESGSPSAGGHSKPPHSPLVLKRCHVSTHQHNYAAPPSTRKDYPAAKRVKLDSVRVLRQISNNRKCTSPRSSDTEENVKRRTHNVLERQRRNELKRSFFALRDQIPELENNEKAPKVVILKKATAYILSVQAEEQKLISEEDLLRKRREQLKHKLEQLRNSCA
T1 sequence (P61244 2-160 partner limits assumed): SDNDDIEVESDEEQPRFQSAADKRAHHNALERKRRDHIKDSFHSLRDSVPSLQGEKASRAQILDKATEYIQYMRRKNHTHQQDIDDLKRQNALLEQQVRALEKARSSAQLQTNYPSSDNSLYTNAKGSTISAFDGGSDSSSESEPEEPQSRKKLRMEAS

For `Oc1c(-c2cc(C(F)(F)F)n[nH]2)ccc(C#CCCN2CCOCC2)c1-c1ccc(Cl)c(C(F)(F)F)c1`, the inhibition in vivo at 75 mg/kg with PC-3 [1] amounted to 69%. Besides, the Activity result is “Dose-Dependent Effect” in the series with PC-3 [2], “Non-Toxic” in series [3], “Dose-Dependent Effect” in the series with PC-3 [6] and “Non-Toxic” in [10]. Also, the IC50 at 72 h in [4] was > 100 µM. Moreover, the inhibition in vivo at 50 mg/kg with PC-3 [5] stood at 33%. In addition, the values for the IC50 with PC-3 [7], with MV4-11 and with HepG2 were 1.27 µM, 0.89 µM and 1.09 µM, respectively. Further, the inhibition entry in series [8] and in [13] was “Active” each time. Moreover, the inhibition in vivo at 100 mg/kg in the series with PC-3 [9] is 79%. The Vd in series [11] came to 6.41 L/kg. Besides, the CL/F in [12] came to 74 mL/min/kg.
